From US20160106654A1, “ADDITIVE OR SYNERGISTIC SUNSCREEN, ANTIOXIDANT, AND DNA REPAIR ENZYME COMPOSITION” (US CosmeceuTechs, LLC, priority 2014, published 2016)

Legend:
[1] = test system: Normal human epidermal keratinocytes (NHEK); test: NHEK, UVB, and protein carbonylation assay; format: cell-based; conditions: 5 μg/mL; for inhibition at 5 µg/mL: Homo sapiens, light or radiation study, n = 2, read-out: PC inhibition (%); for PC inhibition (%): n = 2
Description: The antioxidant(s) are preferably selected from those which protect against and/or prevent protein carbonylation (PC), protein glycation, lipidation, lipid glycation, protein alkylation, and/or lipid alkylation. Our system of evaluation from US 2006/0171886 A1, which may be modified to include a protein carbonylation, protein glycation, and/or protein alkylation analysis, may be used to evaluate the effectiveness of substances. Test results for selected antioxidants in the protection of human skin against protein carbonylation are shown below in Table 2.

[2] = test system: cyclobutane pyrimidine dimer (CPD) and 8-oxo-7,8-dihydro-2′-deoxyguanosine (8OHdG) formation, and protein carbonylation; test: Combined protection score (CPD, 8OHdG, protein carbonylation), normalized for concentration; conditions: for Total Score: a maximum total score is 60
[3] = test system: Normal human epidermal keratinocytes (NHEK); test: NHEK, UVB, and DNA damage analysis assay; format: cell-based; conditions: 5 μg/mL; for inhibition at 5 µg/mL: Homo sapiens, light or radiation study; for 8-oxoG inhibition (%) / CPD inhibition (%): n = 2
[4] = n = 2, read-out: 8-oxoG inhibition (%)
[5] = n = 2, read-out: CPD inhibition (%)

Row | SMILES | inhibition at 5 µg/mL [1] [%] | 8oxo Score [2] | CPDs Score [2] | PC Score [2] | Total Score [2] | inhibition at 5 µg/mL [3, 4] [%] | inhibition at 5 µg/mL [3, 5] [%] | PC inhibition (%) [1] [%] | 8-oxoG inhibition (%) [3] [%] | CPD inhibition (%) [3] [%]
1 | COc1cc(/C=C/C(=O)O)ccc1O [Ferulic Acid] | 0 | 19 | 17 | 10 | 46 | 41.1 | 15.7 | – | – | –
2 | O=C(/C=C/c1ccc(O)c(O)c1)O[C@@H]1C[C@](O)(C(=O)O)C[C@@H](O)[C@H]1O [Chlorogenic Acid] | 0 | – | – | – | – | 52.5 | 36 | – | – | –
3 | O=c1c(O)c(-c2ccc(O)c(O)c2)oc2cc(O)cc(O)c12 [Quercetin] | 0 | – | – | – | – | 42.4 | 45.7 | – | – | –
4 | O=C1O[C@H]([C@@H](O)CO)C(O)=C1O [L-Ascorbic Acid] | 87.2 | 20 | 16 | 0 | 36 | 44.1 | 33.1 | – | – | –
5 | Oc1ccc(C=Cc2cc(O)cc(O)c2)cc1 [Resveratrol] | 0 | 18 | 17 | 12 | 47 | 40.6 | 51.9 | – | – | –
6 | Cc1c(C)c2c(c(C)c1O)CC[C@@](C)(CCC[C@H](C)CCC[C@H](C)CCCC(C)C)O2 [α-Tocopherol] | – | 18 | 16 | 12 | 46 | – | – | – | – | –
7 | C[N+](C)(C)[C@@H](Cc1c[nH]c(=S)[nH]1)C(=O)[O-] [L-Ergothioneine] | – | 14 | 17 | 16 | 47 | – | – | 100 | – | –
8 | O=C(O[C@@H]1Cc2c(O)cc(O)cc2O[C@@H]1c1cc(O)c(O)c(O)c1)c1cc(O)c(O)c(O)c1 [Epigallocatechin Gallate] | – | 18 | 15 | 3 | 36 | – | – | 100 | 41.9 | 44.5
9 | NCCC(=O)N[C@@H](Cc1cnc[nH]1)C(=O)O [L-Carnosine] | – | 17 | 18 | 17 | 52 | – | – | 100 | 45.0 | 51.6
